{"source": "patent US20250040546A1", "about": "“DETERGENT FOR VIRAL INACTIVATION” (Bristol-Myers Squibb Company, priority 2021, published 2025)", "key": {"[1]": {"system": "X-MuLV", "assay": "Detergent-mediated virus inactivation of X-MuLV in mAb1 harvest (pfu-based LRV)", "format": "cell-based, Xenotropic Murine Leukemia Virus", "conditions": "for Log reduction value (LRV) of X-MuLV: 60 minutes hold at 2-8° C.", "description": "(§1) Three lipid-enveloped viruses X-MuLV, HSV-1 and A-MuLV (Amphotropic Murine Leukemia Virus) were investigated for VI in the cell culture fluid of a monoclonal antibody (mAb1) and a fusion protein (Fus1) for a range of detergents and detergent concentrations (FIG. 6). Protein concentration and buffer matrix were dictated by that in the harvest for the specific therapeutic and process. A temperature of 2-8° C. was used as a worst case for inactivation and incubation times of 0, 5 and 60 minutes were used to explore the kinetics of inactivation. Viral clearance was measured in units of Log Reduction Value (LRV) which was calculated from pfu (Plaque Forming Units) as follows\n(§2) Virus inactivation studies were conducted for X-MuLV in mAb1 harvest, HSV-1 and A-MuLV in Fus1 harvest at 0, 5 and 60 minutes at 2-8° C. The inactivation studies for each condition were conducted in duplicates with results varying within 0.5 LRV. The lower of the two LRVS was plotted in FIG. 6 to remain conservative regarding the extent of inactivation. The error bars represent the assay variability.\nThe mechanism of detergent-mediated VI can share similarities with pH-mediated VI and is likely a characteristic of the detergent-protein-virus system under consideration. Detergents could unfold or denature specific viral surface glycoproteins that are critical for the host cell infection as is the case for X-MuLV [Brorson et al. (2003) Biotechnology and Bioengineering 82(3):321-329; Simons & Ehehalt (2002) Journal of Clinical Investigation 110(5):597-603]. Alternately, detergents could inactivate viruses such as HSV-1 through dissolution of the viral lipid envelope or preferential partitioning of the membrane protein into detergent micelles [Welling-Wester et al. (1998) Journal of chromatography A 816(1):29-37]. Three lipid-enveloped viruses commonly used for viral validation studies, X-MuLV, HSV-1 and A-MuLV (Amphotropic Murine Leukemia Virus), were investigated for VI. Any VI condition showing LRV ≥4.0 after a 60 minute hold at 2-8° C., worst case temperature for VI, was considered effective. The extent of inactivation from different detergents was compared with Triton X-100."}, "[2]": {"conditions": "cited from earlier work"}, "[3]": {"target": "T1, Fus1 (Homo sapiens, UniProt P16410)", "T1 construct": "made in house; host or cells: CHO", "T1 sequence (P16410 with tags, fused parts or gaps)": "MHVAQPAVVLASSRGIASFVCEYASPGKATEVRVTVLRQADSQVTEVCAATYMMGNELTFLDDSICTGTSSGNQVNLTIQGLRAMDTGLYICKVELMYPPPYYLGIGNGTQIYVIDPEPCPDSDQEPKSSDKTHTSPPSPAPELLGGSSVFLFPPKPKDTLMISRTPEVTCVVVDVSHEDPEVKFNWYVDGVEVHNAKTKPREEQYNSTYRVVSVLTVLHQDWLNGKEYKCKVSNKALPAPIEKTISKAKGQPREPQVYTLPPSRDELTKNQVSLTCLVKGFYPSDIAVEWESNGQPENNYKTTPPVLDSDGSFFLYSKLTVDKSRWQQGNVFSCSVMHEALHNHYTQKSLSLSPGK", "assay": "Oxidation of Fus1 (tryptic digest RP-UPLC) after detergent spiking of harvest", "format": "physicochemical", "conditions": "Fus1 harvest spiked with detergent at 1×CMC, protein A eluate", "description": "(§3) The protein sample was denatured in denaturation buffer (8 M guanidine, 50 mM TRIS, pH 8.0) and the cystine disulfide bridges were reduced with dithiothreitol (200 mM DTT) followed by S-alkylation with iodoacetamide (400 mM IAM). The denatured, reduced protein was buffer-exchanged (50 mM TRIS, 10 mM CaCl2), pH 7.6) prior to digestion with trypsin. The resulting digested mixture was then analyzed by reverse-phase ultra-performance liquid chromatography (RP-UPLC) using UPLC BEH C18 Column, […], 130 angstrom, 2.1×100 mm (Waters, Catalog no. 186002352) with Mobile Phase A (0.1% TFA, 50 mM Methionine in HPLC Grade Water) and Mobile Phase B (0.1% TFA, 50 mM Methionine in 80% ACN and 20% HPLC grade water). Protein detection at 215 nm absorbance and fluorescent excitation/emission of 275 nm/303 nm and 280 nm/348 nm was used to quantify relative levels of oxidation and deamidation respectively."}, "[4]": {"system": "fusion proteins Fus1 and Fus2", "assay": "SEC analysis of HMW formation and aggregation kinetics of fusion proteins with detergents", "format": "physicochemical", "description": "Size exclusion chromatography (SEC) was performed in a Waters HPLC Alliance 2695 System using TSKgel G3000SWXL Column (Tosoh Bioscience, Catalogue no. 085430) with guard column (Tosoh Bioscience, Catalogue no. 08541) in line. A mobile phase of 0.2 M Sodium phosphate, monobasic, 0.9% NaCl, pH 7.0 was used with 20 μL injection volumes at 1 to 10 mg/mL target protein concentrations with a flow rate of 1 mL/minute. Tandem SEC was performed with 50 μL injection volumes with a flow rate of 0.5 mL/minute using 6 TSKgel G3000SWXL Column using 0.2 M KH2PO4, 0.9% NaCl, pH 6.8 as mobile phase.\nGiven N is the monomer species, No is the initial monomer % at time t=0, aggregation follows first order kinetics with k1 being the rate constant of aggregation as shown in Equation (1) (Derivation in Supplemental Information)."}, "[5]": {"system": "lipid-enveloped viruses", "assay": "Viral inactivation, summary statements (LRV equal or above 4 criterion)", "format": "cell-based", "conditions": "detergent below its CMC, e.g. 0.5×CMC; virus not named", "source_text": "The present disclosure relates to detergent-mediated inactivation of lipid-enveloped viruses. […] The current commercially available detergent for such process is Triton X-100.\nSeveral environmentally friendly detergents for the viral inactivation step of biologics manufacturing processes have been identified in the art, e.g., Lauryldimethylamine Oxide (LDAO) and ECOSURF™ EH9. These systems for viral inactivation use a single detergent. The present disclosure provides a detergent mixture comprising two environmentally sustainable detergents: n-Octyl-β-D-Glucopyranoside (OG) and n-Dodecyl-β-D-Maltopyranoside (DDM). […] Accordingly, the disclosed combination of OG and DDM can be used as substitute of Triton X-100 for the viral inactivation step in the production of biologics, for example, in the process used to manufacture ORENCIA®."}, "[6]": {"system": "B7.1 Ig", "assay": "Potency: Surface Plasmon Resonance binding of CTLA-4 domain of Fus1 to B7.1 Ig in presence of detergent", "conditions": "high concentration Fus1 DS; detergent at 10×CMC; 24 hours, room temperature", "description": "The potency was determined by measuring the binding efficacy of the CTLA-4 (cytotoxic T-lymphocyte-associated protein 4) domain of the fusion proteins against the complementary binding domain of membrane protein B7.1 Ig, typically found on activated antigen-presenting cells (APC). Drug efficacy for the purified DS was evaluated using a Surface Plasmon Resonance assay; the binding efficacy of the CTLA-4 domain of Fus1 and Fus2 against a high concentration of the peripheral membrane protein B7.1 Ig was examined. Due to the influence of impurities on the binding efficacy, only DS was tested."}, "[7]": {"target": "T2, Fus2 (Homo sapiens, UniProt P16410, A66Y/L141E)", "T2 construct": "made in house; host or cells: CHO", "T2 sequence (P16410 with tags, fused parts or gaps A66Y/L141E limits assumed)": "as the sequence (P16410 with tags, fused parts or gaps) above, with A29Y, L104E counted along it", "assay": "Oxidation of Fus2 (tryptic digest RP-UPLC) after detergent spiking of harvest", "format": "physicochemical", "conditions": "Fus2 harvest spiked with detergent at 1×CMC, protein A eluate", "description": "as §3"}, "[8]": {"assay": "Isoelectric point (pI)", "format": "physicochemical"}, "[9]": {"assay": "Sialic acid content of Fus1 and Fus2 Protein A eluates of detergent-spiked harvest", "format": "physicochemical", "conditions": "stated as within acceptable range", "description": "Sialic acids are neuraminic acids modified by the addition of an acetyl group (N-acetylneuraminic acid/NANA) or a glycol group (N-glycolylneuraminic acid/NGNA) .Sialic acid contents are reported as normalized molar ratios, which are the total moles of NANA and NGNA per mole of recombinant protein. The protein concentrations were determined by UV absorbance at 280 nm. Sialic acid content was determined by partial acidic hydrolysis using sulfuric acid at 0.1 N final concentration at 80° C. for 1 hour followed by reversed phase HPLC using Rezex Monosaccharide RHM HPLC column (Phenomenex, Catalog No. OOH-0132-KO with respective guard column (Phenomenex, Catalog No. 03B-0132-KO). Elution was conducted with 5 mM Sulfuric acid at 0.6 mL/min and 40° C."}, "[10]": {"system": "HSV-1", "assay": "Detergent-mediated virus inactivation of HSV-1 in Fus1 harvest (pfu-based LRV)", "format": "cell-based, Herpes Simplex Virus type 1", "conditions": "detergent concentration not stated"}, "[11]": {"system": "A-MuLV", "assay": "Detergent-mediated virus inactivation of A-MuLV in Fus1 harvest (pfu-based LRV)", "format": "cell-based, Amphotropic Murine Leukemia Virus", "conditions": "detergent concentration not stated", "description": "as §1, §2\nThe mechanism of detergent-mediated VI can share similarities with pH-mediated VI and is likely a characteristic of the detergent-protein-virus system under consideration. […]"}, "[12]": {"conditions": "Slinde & Flatmark (1976); cited from earlier work"}}, "note": "Where two headings read alike, the source gives them in different places.", "data": [{"compound": "CCCCCCCCCCO[C@@H]1O[C@H](CO)[C@@H](O[C@H]2O[C@H](CO)[C@@H](O)[C@H](O)[C@H]2O)[C@H](O)[C@H]1O", "note": "[DM, n-Decyl-β-D-Maltopyranoside]", "values": [{"measurement": "Log reduction value (LRV) of X-MuLV", "setting": "[1]; detergent at 10×CMC", "value": 2.0, "unit": "LRV"}]}, {"compound": "CCCCCCCCCCCC[N+](C)(C)[O-]", "note": "[LDAO, Lauryldimethylamine Oxide]", "values": [{"measurement": "LRV", "setting": "[2]; fusion protein at 2-8° C. (Conley et al.)", "value": "~3.0", "unit": "LRV"}, {"measurement": "LRV", "setting": "[2]; fusion protein at room temperature (Conley et al.)", "value": "~4.0", "unit": "LRV"}, {"measurement": "LRV", "setting": "[2]; mAb under the same conditions, 2-8° C. (Conley et al.)", "value": 4.0, "unit": "LRV"}]}, {"compound": "CCCCCCCCO[C@@H]1O[C@H](CO)[C@@H](O)[C@H](O)[C@H]1O", "note": "[OG, n-Octyl-β-D-Glucopyranoside]", "values": [{"measurement": "Oxidation of Fus1", "setting": "[3]", "value": "higher oxidation"}, {"measurement": "HMW formation (rank among detergents)", "setting": "[4]; SEC, DS and clarified harvest of Fus1 and Fus2", "value": "greatest"}, {"measurement": "Rate of aggregation (rank among OG, DDM, LDAO)", "setting": "[4]; high concentration DS of Fus1 and Fus2", "value": "fastest rate of aggregation"}, {"measurement": "Viral inactivation (defined as a LRV equal or above 4)", "setting": "[5]", "value": "insufficient for viral inactivation"}, {"measurement": "Potency (B7 binding efficiency relative to reference material)", "setting": "[6]", "value": "less than 60%"}, {"measurement": "Oxidation of Fus2", "setting": "[7]", "value": "higher oxidation"}]}, {"compound": "Fus1: fusion protein abatacept (CTLA4-Ig, SEQ ID NO:1 proteins)", "values": [{"measurement": "pI", "setting": "[8]", "value": "~5.0"}, {"measurement": "NANA (N-acetylneuraminic acid): protein molar concentration", "setting": "[9]", "value": "8 to 12", "unit": "%"}]}, {"compound": "Fus2: fusion protein belatacept (SEQ ID NO:2 proteins)", "values": [{"measurement": "pI", "setting": "[8]", "value": "~5.0"}, {"measurement": "NANA (N-acetylneuraminic acid): protein molar concentration", "setting": "[9]", "value": "6 to 8.5", "unit": "%"}]}, {"compound": "Polysorbate 80 [PS80]", "values": [{"measurement": "Inactivation of X-MuLV", "setting": "[1]; detergent concentration not stated", "value": "No inactivation"}, {"measurement": "Inactivation of HSV-1", "setting": "[10]", "value": "No inactivation"}, {"measurement": "Inactivation of A-MuLV", "setting": "[11]", "value": "No inactivation"}]}, {"compound": "Triton X-100", "values": [{"measurement": "Log reduction value (LRV) of X-MuLV", "setting": "[1]; detergent at 1×CMC", "value": "≥ 4.85±0.5", "unit": "LRV"}, {"measurement": "Log reduction value (LRV) of X-MuLV", "setting": "[1]; detergent at 10×CMC", "value": "≥ 4.85±0.5", "unit": "LRV"}, {"measurement": "HLB value", "setting": "[12]", "value": 13.5}]}]}
